Test results from EP1433789A1, “Pyrrolopyrazines and their use as selective apoptosis inducers” (Aponetics AG, priority 2002, dated 2004).

Columns and labels:
[1] = test system: A20; experiment: Hoechst 33342 nuclear staining (Table 3); type: cell-based, mouse; design: key: 0 relating to no activity; 1 relating to weak activity comprising less than 50% of the cells; score 2 relating to strong activity comprising more than 50% of the cells
Experimental: This assay is performed in 96 well tissue culture plates. Appropriate number of cells (adherent cells: 3 - 5*10^3, suspension cells: 8 - 10*10^3) are being seeded out in 80 µl complete medium. Adherent cells are incubated for 24 h for proper spreading out before addition of test compounds while suspension cells are immediately treated with test compounds after seeding out. The test compounds are added in 20 µl complete medium containing max 5% DMSO. The final compound concentrations in the assays are 10 µM, 3 µM,1 µM and 0.3 µM, respectively. After 24 h or 48 h incubation at culture conditions, 10 µl medium containing Hoechst 33342 dye (Sigma B-2261) at 2-5 µg/ml are added to each well. The assay plates are then further incubated for 30 minutes and subsequently analyzed with a standard inverted fluorescence microscope. The readout allows the determination of the fraction of apoptotic nuclei as well as other morphological criteria specific for apoptosis as a function of the treatment. The following scores are used: 0 relating to no activity, 1 relating to weak activity comprising less than 50% of the cells and score 2 relating to strong activity comprising more than 50% of the cells.

[2] = test system: Jurkat; experiment: Hoechst 33342 nuclear staining (Table 3); type: cell-based, human; design: key: 0 relating to no activity; 1 relating to weak activity comprising less than 50% of the cells; score 2 relating to strong activity comprising more than 50% of the cells
Procedure, shortened: (§1)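 Adherent cells (3-5×10^3, pre-spread 24 h) or suspension cells (8-10×10^3) treated with compounds at 10, 3, 1 and 0.3 µM for 24 or 48 h, then Hoechst 33342 stained for 30 min. Apoptotic nuclear morphology scored by fluorescence microscopy: 0 none, 1 weak (<50% cells), 2 strong (>50% cells).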

[3] = test system: K562; experiment: Hoechst 33342 nuclear staining (Table 3); type: cell-based, human; design: key: 0 relating to no activity; 1 relating to weak activity comprising less than 50% of the cells; score 2 relating to strong activity comprising more than 50% of the cells
Procedure, shortened: as §1

[4] = test system: HeLa; experiment: MTS proliferation assay; type: cell-based; conditions: Homo sapiens, 72 h incubation
Experimental: (§2) The assay is performed in 96 well tissue culture plates. The cells (range : 1.5*10^3-10^4) are seeded out in 80 µl complete medium 24 h prior to compound treatment. The test compounds are added in 20 µl complete medium containing max 5% DMSO. The final compound concentrations in the assays are 10 µM, 3 µM,1 µM and 0.3 µM, respectively. The assay plates are incubated for 72 h at culture conditions. The MTS reagent is prepared according to the manufacturer's protocol (Promega G1111 ). 20 µl MTS reagent are added to each well, the assay plates are quickly spun and incubated for another 3 h at culture conditions. Subsequently, the plates are shortly shaked and absorption measured with a microplate-reader at 492 nm.

[5] = test system: Jurkat; experiment: MTS proliferation assay; type: cell-based; conditions: Homo sapiens, 72 h incubation
Experimental: as §2

[6] = test system: K562; experiment: MTS proliferation assay; type: cell-based; conditions: Homo sapiens, K562, 72 h incubation
Experimental: as §2

[7] = test system: HeLa; experiment: AnnexinV/7-AAD staining; type: cell-based, human; conditions: 10 µM, 24 h treatment
Procedure, shortened: (§3)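 Cells treated with compound at 10 µM final for 24 h, then stained with AnnexinV-GST/anti-GST Alexa 488 and 7-AAD and analysed by flow cytometry. Percent positive cells scored as 0 (<10%), 1 (10–50%) or 2 (>50%).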

[8] = test system: Jurkat; experiment: AnnexinV/7-AAD staining; type: cell-based, human; conditions: 10 µM, 24 h treatment
Procedure, shortened: as §3

[9] = test system: Ramos; experiment: AnnexinV/7-AAD staining; type: cell-based, human; conditions: 10 µM, 24 h treatment
Procedure, shortened: as §3

[10] = test system: A20; experiment: AnnexinV/7-AAD staining; type: cell-based, mouse; conditions: A20, 10 µM, 24 h treatment
Procedure, shortened: as §3

[11] = test system: HeLa; experiment: PI staining for cell cycle distribution; type: cell-based, human; design: key: 0 indicates no occurrence at all; 1 for weak; 2 for strong occurrence; conditions: HeLa 10 µM, 24 h
Experimental: (§4) 1 - 2*10^5 cells are seeded into 24 well tissue culture plates and incubated for 24 h prior to compound addition. Compounds are added for 24 h in a final concentration of 3 µM or 10 µM. Adherent cells are harvested by trypsinization. The cell suspensions are fixed by adding 2 parts ice cold ethanol 100% while vortexing. Then the samples are stored for > 2 h at-20°C. Subsequently the cells are washed with PBS once and resuspended in 250 µl PBS containing 50 µg/ml PI (Calbiochem # 537059), then the samples are incubated at 37°C for 30 minutes and subsequently analyzed on a FACSCalibur™ monitoring linear PI fluorescence activity on FL2.. The readout allows the detection of a possible direct or indirect influence of the tested compounds on the cell cycle. The following events can occur: a) Generation of a subG1 peak indicative for DNA fragmentation, b) increase of the cell population arrested in G2M phase. Both events are scored by 1 for weak and 2 for strong occurrence. 0 indicates no occurrence at all. […]

[12] = test system: Jurkat; experiment: PI staining for cell cycle distribution; type: cell-based, human; design: key: 0 indicates no occurrence at all; 1 for weak; 2 for strong occurrence; conditions: Jurkat 3 uM, 24 h
Experimental: as §4

Compound	Hoechst 33342 nuclear staining ([1]; A20, 24h, conc 1 (µM))	Hoechst 33342 nuclear staining ([2]; 24h, conc 0.3 (µM))	Hoechst 33342 nuclear staining ([2]; 24h, conc 1 (µM))	Hoechst 33342 nuclear staining ([2]; 24h, conc 3 (µM))	Hoechst 33342 nuclear staining ([2]; 24h, conc 10 (µM))	Hoechst 33342 nuclear staining ([2]; 48h, conc 0.3 (µM))	Hoechst 33342 nuclear staining ([2]; 48h, conc 1 (µM))	Hoechst 33342 nuclear staining ([2]; 48h, conc 3 (µM))	Hoechst 33342 nuclear staining ([2]; 48h, conc 10 (µM))	Hoechst 33342 nuclear staining ([3]; K562, 24h, conc 0.3 (µM))	Hoechst 33342 nuclear staining ([3]; K562, 24h, conc 1 (µM))	Hoechst 33342 nuclear staining ([3]; K562, 24h, conc 3 (µM))	Hoechst 33342 nuclear staining ([3]; K562, 48h, conc 0.3 (µM))	Hoechst 33342 nuclear staining ([3]; K562, 48h, conc 1 (µM))	Hoechst 33342 nuclear staining ([3]; K562, 48h, conc 3 (µM))	Hoechst 33342 nuclear staining ([3]; K562, 48h, conc 10 (µM))	percentage of positively stained cells (AnnexinV/7-AAD staining) [7]	percentage of positively stained cells (AnnexinV/7-AAD staining) [8]	percentage of positively stained cells (AnnexinV/7-AAD staining) [9]	percentage of positively stained cells (AnnexinV/7-AAD staining) [10]	other results
CC1Cc2ccccc2-c2c(Cl)c3nc4ccccc4nc3n21 (stereo not shown) [compound 11]	0	0	0	2 (score 2 relating to strong activity comprising more than 50% of the cells)	2 (score 2 relating to strong activity comprising more than 50% of the cells)	1 (1 relating to weak activity comprising less than 50% of the cells)	2 (score 2 relating to strong activity comprising more than 50% of the cells)	2 (score 2 relating to strong activity comprising more than 50% of the cells)	2 (score 2 relating to strong activity comprising more than 50% of the cells)	0	0	0	0	0	1 (1 relating to weak activity comprising less than 50% of the cells)	2 (score 2 relating to strong activity comprising more than 50% of the cells)	1 (score 1 relates to more than 10% but less than 50%)	0 (Score 0 relates to less than 10%)	2 (score 2 relates to more than 50% positivity)	1 (score 1 relates to more than 10% but less than 50%)	Hoechst 33342 nuclear staining ([1]; A20, 24h, conc 3 (µM)): 0; Hoechst 33342 nuclear staining ([1]; A20, 24h, conc 10 (µM)): 0; Hoechst 33342 nuclear staining ([1]; A20, 48h, conc 0.3 (µM)): 0; Hoechst 33342 nuclear staining ([1]; A20, 48h, conc 1 (µM)): 0; Hoechst 33342 nuclear staining ([1]; A20, 48h, conc 3 (µM)): 0; Hoechst 33342 nuclear staining ([1]; A20, 48h, conc 10 (µM)): 2 (score 2 relating to strong activity comprising more than 50% of the cells); Hoechst 33342 nuclear staining ([3]; K562, 24h, conc 10 (µM)): 2 (score 2 relating to strong activity comprising more than 50% of the cells); IC50 [4]: > 10 µM; IC50 [5]: > 10 µM; IC50 [6]: > 10 µM; G2M (increase of the cell population arrested in G2M phase) [11]: 0; subG1 (generation of a subG1 peak indicative for DNA fragmentation) [11]: 0; G2M (increase of the cell population arrested in G2M phase) [12]: 0; subG1 (generation of a subG1 peak indicative for DNA fragmentation) [12]: 0
CCC1Cc2cc(OC)c(OC)cc2-c2cc3nc4ccccc4nc3n21 (stereo not shown) [compound 13]	0	0	0	1 (1 relating to weak activity comprising less than 50% of the cells)	2 (score 2 relating to strong activity comprising more than 50% of the cells)	0	2 (score 2 relating to strong activity comprising more than 50% of the cells)	2 (score 2 relating to strong activity comprising more than 50% of the cells)	2 (score 2 relating to strong activity comprising more than 50% of the cells)	0	0	0	0	0	1 (1 relating to weak activity comprising less than 50% of the cells)	2 (score 2 relating to strong activity comprising more than 50% of the cells)	1 (score 1 relates to more than 10% but less than 50%)	2 (score 2 relates to more than 50% positivity)	2 (score 2 relates to more than 50% positivity)	2 (score 2 relates to more than 50% positivity)	Hoechst 33342 nuclear staining ([1]; A20, 24h, conc 0.3 (µM)): 0; Hoechst 33342 nuclear staining ([1]; A20, 24h, conc 3 (µM)): 0; Hoechst 33342 nuclear staining ([1]; A20, 24h, conc 10 (µM)): 0; Hoechst 33342 nuclear staining ([1]; A20, 48h, conc 0.3 (µM)): 0; Hoechst 33342 nuclear staining ([1]; A20, 48h, conc 1 (µM)): 0; Hoechst 33342 nuclear staining ([1]; A20, 48h, conc 3 (µM)): 0; Hoechst 33342 nuclear staining ([1]; A20, 48h, conc 10 (µM)): 0; Hoechst 33342 nuclear staining ([3]; K562, 24h, conc 10 (µM)): 2 (score 2 relating to strong activity comprising more than 50% of the cells); IC50 [4]: > 10 µM; IC50 [5]: 1 to 10 µM; IC50 [6]: > 10 µM; G2M (increase of the cell population arrested in G2M phase) [11]: 0; subG1 (generation of a subG1 peak indicative for DNA fragmentation) [11]: 0; G2M (increase of the cell population arrested in G2M phase) [12]: 0; subG1 (generation of a subG1 peak indicative for DNA fragmentation) [12]: 0
CC1(C)Cc2ccccc2-c2c(Br)c3nc4ccccc4nc3n21 [No. 2, 13-Bromo-6,6-dimethyl-5,6-dihydro-6a,7,12-triaza-dibenzo[a,h]fluorene]		1 (1 relating to weak activity comprising less than 50% of the cells)	1 (1 relating to weak activity comprising less than 50% of the cells)	2 (score 2 relating to strong activity comprising more than 50% of the cells)	2 (score 2 relating to strong activity comprising more than 50% of the cells)	2 (score 2 relating to strong activity comprising more than 50% of the cells)	2 (score 2 relating to strong activity comprising more than 50% of the cells)	2 (score 2 relating to strong activity comprising more than 50% of the cells)	2 (score 2 relating to strong activity comprising more than 50% of the cells)	0	0	1 (1 relating to weak activity comprising less than 50% of the cells)	0	0	2 (score 2 relating to strong activity comprising more than 50% of the cells)	2 (score 2 relating to strong activity comprising more than 50% of the cells)	1 (score 1 relates to more than 10% but less than 50%)	2 (score 2 relates to more than 50% positivity)	2 (score 2 relates to more than 50% positivity)	2 (score 2 relates to more than 50% positivity)	
